Measured values as given in US9388139B2, “Derivatives of celeboxib, use thereof and preparation thereof” (German University, priority 2011, dated 2016).

What was measured:
COX1 = COX1 (Ovis aries (Sheep), UniProt P05979); assay: COX-1 activity, colorimetric assay; type: biochemical, ovine; details: screening dose 100 μM; read-out: IC50 μM against COX1
Experimental: Compounds according to the present disclosure were tested for their in vitro ability to inhibit recombinant human PDE5, COX1 and COX2 enzymes at screening doses of 50, 100 and 100 μM respectively.
COX-1 and COX-2 activities were measured using purified ovine COX-1 and COX-2 with colorimetric assay kits obtained from Cayman Chemical Co. (Ann Arbor, Mich.). The activities of COX-1 and COX-2 were measured after the addition of arachidonic acid and incubation at 25° C. for 5 min by absorbance at 590 nm as specified by the manufacturer.

A498 = assay: Tumor cell growth inhibition panel; type: cell-based; details: Homo sapiens, Renal
Experimental: (§1) Thus, compound 12 is able to show broad spectrum tumor cell growth inhibitory activity independent of cyclooxygenase inhibition, whereas PDE5 may be the major contributor to such activity.
(§2) The human tumor cell lines were purchased from the American Type Culture Collection (Mansassas, Va.) and maintained in RPMI-1640+2.0 g/L glucose pH 7.4+5% FBS+4 mM glutamine (complete growth medium), incubated at 37° C. in 5% CO2, and passaged at subconfluent density. The human fetal colon FHC cells were cultured in DMEM:F12 medium supplemented with 10% FBS, cholera toxin (10 ng/mL), 5 μg/ml transferrin, 5 μg/ml insulin, and 100 ng/ml hydrocortisone. The passage number was routinely limited to approximately 20 and morphology monitored with each passage, but no additional authentication of the cell lines was performed.
(§3) Cells were plated in 96-well microtiter plates at a density of 5,000 cells per well and allowed to adhere overnight prior to treatment. Cells were treated with a 2-log concentration range of either SS or SBA and incubated for an additional 72 hours. For siRNA assays, cells were transfected in OptiMEM media with 0.5% SureFECT transfection reagent and 200 nmol/L of either negative control or PDE5 siRNA and incubated at 37° C. for 24 h prior to treatment. At the end of the incubation period, relative cell viability was compared to vehicle controls using the Cell Titer Glo Assay (Promega, Madison Wis.), which measures viable cells based on ATP content, according to the manufacturer's specifications.

EKVX = assay: Tumor cell growth inhibition panel; type: cell-based; details: Homo sapiens, Lung
Experimental: as §1, §2, §3

M14 = assay: Tumor cell growth inhibition panel; type: cell-based; details: Homo sapiens, Melanoma
Experimental: as §1, §2, §3

NCI-H522 = assay: Tumor cell growth inhibition panel; type: cell-based; details: Homo sapiens, Lung
Experimental: as §1, §2, §3

SNB-19 = assay: Tumor cell growth inhibition panel; type: cell-based; details: Homo sapiens, CNS
Experimental: as §1, §2, §3

Sequence of COX1 (P05979 25-600): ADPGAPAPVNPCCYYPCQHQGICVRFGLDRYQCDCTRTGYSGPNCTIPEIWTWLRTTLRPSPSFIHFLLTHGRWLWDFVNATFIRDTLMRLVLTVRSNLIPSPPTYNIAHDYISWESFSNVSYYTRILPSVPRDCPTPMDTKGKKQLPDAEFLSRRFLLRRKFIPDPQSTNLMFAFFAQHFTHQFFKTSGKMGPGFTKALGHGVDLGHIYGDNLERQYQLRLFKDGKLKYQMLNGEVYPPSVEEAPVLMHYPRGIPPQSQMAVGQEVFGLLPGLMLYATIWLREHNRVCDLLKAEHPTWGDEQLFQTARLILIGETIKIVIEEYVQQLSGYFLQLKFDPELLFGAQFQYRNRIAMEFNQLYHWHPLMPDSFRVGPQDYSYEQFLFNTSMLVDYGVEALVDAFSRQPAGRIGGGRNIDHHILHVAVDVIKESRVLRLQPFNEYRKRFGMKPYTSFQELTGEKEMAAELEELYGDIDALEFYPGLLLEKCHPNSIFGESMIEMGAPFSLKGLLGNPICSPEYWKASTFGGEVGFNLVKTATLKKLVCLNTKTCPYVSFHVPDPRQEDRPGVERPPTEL

How did the IC50 (COX1) turn out when CC(C)(C)C1=NN(c2ccc(C(=O)O)cc2)C(c2ccc(Cl)cc2Cl)C1 (stereo not drawn) [Compound 12, 4-(3-(tert-Butyl)-5-(2,4-dichlorophenyl)-4,5-dihydro-1H-pyrazol-1-yl)benzoic acid] was run?
Its IC50 is greater than 100 µM.

What about the IC50 (A498) of the same molecule?
The IC50 was 33 µM.

What about the IC50 (EKVX) of the same molecule?
Its IC50 is 57.2 µM.

And the IC50 (M14)?
Its IC50 is 62.9 µM.

And the IC50 (NCI-H522)?
The IC50 was 50.4 µM.

What about the IC50 (SNB-19) of the same molecule?
Its IC50 is 52.8 µM.
